These results are taken from ChEMBL document CHEMBL5260853, “Small Molecules Targeting Activated Cdc42-Associated Kinase 1 (ACK1/TNK2) for the Treatment of Cancers” (J Med Chem, 2021).

A short description of assay [1]: Inhibition of ACK1 D163E mutant in mouse BaF3 cells. Format: cell-based.
A short description of assay [2]: Inhibition of ACK1 R806Q mutant in mouse BaF3 cells. It is filed as cell-based.
Assay [3] concerns the target T1, Activated CDC42 kinase 1 (Homo sapiens, UniProt Q07912). As to the kind of experiment: Inhibition of ACK1 (unknown origin) at 10 uM relative to control.
Target sequence in this assay (Q07912 whole entry, looked up): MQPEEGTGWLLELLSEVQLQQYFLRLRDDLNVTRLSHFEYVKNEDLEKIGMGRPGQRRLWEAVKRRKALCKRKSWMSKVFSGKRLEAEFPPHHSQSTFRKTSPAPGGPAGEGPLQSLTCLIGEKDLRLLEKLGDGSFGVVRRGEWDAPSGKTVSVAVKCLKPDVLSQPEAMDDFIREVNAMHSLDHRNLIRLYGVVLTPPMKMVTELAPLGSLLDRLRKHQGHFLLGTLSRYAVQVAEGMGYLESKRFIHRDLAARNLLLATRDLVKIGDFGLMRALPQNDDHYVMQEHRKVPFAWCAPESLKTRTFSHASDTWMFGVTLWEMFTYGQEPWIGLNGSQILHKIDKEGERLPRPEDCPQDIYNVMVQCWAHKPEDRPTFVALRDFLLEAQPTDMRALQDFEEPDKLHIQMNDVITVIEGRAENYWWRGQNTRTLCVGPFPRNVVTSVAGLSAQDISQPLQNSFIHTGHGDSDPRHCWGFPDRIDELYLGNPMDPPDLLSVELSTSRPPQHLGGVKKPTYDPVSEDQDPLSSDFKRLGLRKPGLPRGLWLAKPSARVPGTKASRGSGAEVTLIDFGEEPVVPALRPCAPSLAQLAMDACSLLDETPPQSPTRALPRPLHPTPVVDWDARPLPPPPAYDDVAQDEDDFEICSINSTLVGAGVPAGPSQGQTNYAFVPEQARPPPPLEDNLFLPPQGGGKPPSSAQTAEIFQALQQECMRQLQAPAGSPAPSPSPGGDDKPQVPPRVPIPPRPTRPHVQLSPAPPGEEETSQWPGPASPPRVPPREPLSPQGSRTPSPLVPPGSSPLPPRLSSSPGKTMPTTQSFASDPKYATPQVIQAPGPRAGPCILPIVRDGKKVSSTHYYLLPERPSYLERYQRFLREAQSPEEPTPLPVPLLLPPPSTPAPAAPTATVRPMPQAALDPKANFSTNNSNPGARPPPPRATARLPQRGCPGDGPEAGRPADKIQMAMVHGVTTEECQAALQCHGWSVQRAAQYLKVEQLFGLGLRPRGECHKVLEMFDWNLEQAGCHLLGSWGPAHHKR
The target of assay [4] is T1, Activated CDC42 kinase 1. The experiment in a line: Inhibition of ACK1 (unknown origin).
Target sequence in this assay (Q07912 whole entry): as the sequence (Q07912 whole entry, looked up) above
A further assay has as its system MDA-MB-157. As to the kind of experiment: Antiproliferative activity against human MDA-MB-157 cells treated for 96 hrs by trypan blue exclusion assay. Format: functional, cell-based. As to conditions: MDA-MB-157, 96 h.

For the molecule `Cc1nc(Nc2ncc(C(=O)Nc3c(C)cccc3Cl)s2)cc(N2CCN(CCO)CC2)n1` [DASATINIB], the IC50 in assay [1] amounted to 0.0001 µM; in assay [2] it was 0.0013 µM. Consider `COc1cc2ncnc(Nc3ccc(F)c(Cl)c3)c2cc1OCCCN1CCOCC1`, for which the inhibition on Activated CDC42 kinase 1 [3] was found to be 77%. At Activated CDC42 kinase 1 [4], `C=CC(=O)Nc1cc(Nc2nccc(-c3cn(C)c4ccccc34)n2)c(OC)cc1N(C)CCN(C)C` [OSIMERTINIB] showed an IC50 of 0.071 µM. At Activated CDC42 kinase 1 [3], `CCN(CC)CCNC(=O)c1c(C)[nH]c(/C=C2\C(=O)Nc3ccc(F)cc32)c1C` had an inhibition of 33%. `CN1CCN(c2ccc(Nc3ncc(Cl)c(NC[C@H]4CCCO4)n3)cc2)CC1`: in the assay on MDA-MB-157, the IC50 came to 0.48 µM. In other words, the sub-micromolar range. On to `CNc1cc2c(Nc3cccc(Br)c3)ncnc2cn1`, for which, on Activated CDC42 kinase 1 [4], inhibition was half-maximal at 0.2 µM (IC50).

As for `Cc1cc(Nc2ncc(Cl)c(Nc3ccccc3S(=O)(=O)C(C)C)n2)c(OC(C)C)cc1C1CCNCC1` [CERITINIB], the IC50 against Activated CDC42 kinase 1 [4] is 0.0336 µM.

As to `CN1CC[C@H](c2c(O)cc(O)c3c(=O)cc(-c4ccccc4Cl)oc23)[C@H](O)C1` [ALVOCIDIB], on Activated CDC42 kinase 1 [3], the inhibition came to 74%. At Activated CDC42 kinase 1 [4], this molecule had an IC50 of under 20 µM. Take `COc1cc(N2CCN(C)CC2)ccc1Nc1ncc2c(n1)N(C)c1ccccc1C(=O)N2`: the IC50 in assay [1] stood at 0.038 µM; in assay [2], 0.113 µM.

Take `CN1c2ccccc2C(=O)Nc2cnc(Nc3ccc(N4CCC(O)CC4)cc3)nc21`: the IC50 in assay [1] amounted to 0.016 µM; in assay [2] it was 0.077 µM.
